Patent US9725430B2, “Use of small molecule inhibitors targeting EYA tyrosine phosphatase” (Children's Hospital Medical Center, priority 2013, dated 2017)

What was measured:
Eya3(ED) = Eya3(ED) (Mus musculus (Mouse), UniProt P97480); test: p-nitrophenylphosphate (pNPP) assay, catalytic domain of Eya3; assay type: biochemical; conditions: pNPP substrate
From the text: The catalytic domain of mouse Eya3 (“ED”, comprising residues 223-510 of Eya3) was purified as described by Rayapureddi, J. P. et al. (FEBS Lett 580, 3853-3859 (2006), incorporated by reference in its entirety). For full-length Eya3 (“hEYA3”), human Eya3 isoform 2 (representing the major species identified in human cell lines by mass spectrometry, expressed as residues 127-573 of NM_001990, isoform 1) was sub-cloned into pDEST565 to express a poly-histidine-Glutathione-S-transferase (His-GST) tagged fusion protein with a TVMV protease site. The protein was purified by glutathione-S-transferase affinity chromatography followed by TVMV cleavage, Ni-NTA chromatography, and finally size exclusion chromatography.
An inhibitory assay was conducted using the previously described p-nitrophenylphosphate assay (Rayapureddi, J. P. et al. Nature 426, 295-298 (2003)). Briefly, ED was incubated in a reaction mixture containing 20 mM MES pH 6, 2 mM MgCl2, 125 μM inhibitor, 3.4 mM para-nitrophenol phosphate (pNPP) and 0.01 μg/μL enzyme.
The compounds were then tested using full-length human recombinant, purified EYA3 and pNPP as a substrate. Compounds were dissolved in DMSO and diluted as needed. […] Reactions were incubated at 30° C. for 30 minutes and quenched with 100 mM EDTA pH 10. IC50 values were then calculated directly from regression curves using PRISM software. […]

MCF10A(EYA2) cells = test: Transwell migration of MCF10A-EYA2 cells; assay type: cell-based; conditions: 7.5 μM
From the text: The tyrosine phosphatase activity of Eya3 and Eya2 promotes single cell motility in breast cancer cells (Pandey, R. N. et al. Oncogene (2010) 29:3715-3722, incorporated by reference in its entirety). EYA2 is over-expressed in breast cancers and is associated with increased metastasis and a poorer outcome (Farabaugh, et al. Oncogene (2011) 259). […] Overexpression of EYA2, but not the tyrosine-phosphatase dead mutant, promoted cell motility (FIG. 2a). […] This effect was dose-dependent (FIG. 2d) and compound (1a) was able to reduce cell motility by over 50% at the lowest concentration (1 μM) tested.
In order to determine whether EYA3 knock down would affect cell migration, a modified Boyden chamber assay was used to measure HUVEC migration. Briefly, human umbilical vein endothelial cells (HUVECs) were purchased from Lonza (Walkersville, Md.) and maintained in the endothelial cell growth medium (PromoCell, Hleidelberg, Germany), under a 5% CO2 atmosphere. MCF10A cells from ATCC were stably transfected with either pcDNA 3.2N5-DEST (vector control), V5-EYA2 or V5-EYA2(D250N). Transwell migration experiments were performed as previously described (Pandey, R. N. et al. Oncogene 29, 3715-3722, (2010)).

EYA3 = EYA3 (Homo sapiens (Human), UniProt Q99504); test: pNPP assay, full-length human recombinant EYA3; assay type: biochemical
From the text: The catalytic domain of mouse Eya3 (“ED”, comprising residues 223-510 of Eya3) was purified as described by Rayapureddi, J. P. et al. (FEBS Lett 580, 3853-3859 (2006), incorporated by reference in its entirety). For full-length Eya3 (“hEYA3”), human Eya3 isoform 2 (representing the major species identified in human cell lines by mass spectrometry, expressed as residues 127-573 of NM_001990, isoform 1) was sub-cloned into pDEST565 to express a poly-histidine-Glutathione-S-transferase (His-GST) tagged fusion protein with a TVMV protease site. The protein was purified by glutathione-S-transferase affinity chromatography followed by TVMV cleavage, Ni-NTA chromatography, and finally size exclusion chromatography. […]
The compounds were then tested using full-length human recombinant, purified EYA3 and pNPP as a substrate. Compounds were dissolved in DMSO and diluted as needed. […] Reactions were incubated at 30° C. for 30 minutes and quenched with 100 mM EDTA pH 10. IC50 values were then calculated directly from regression curves using PRISM software. All reported values are the mean of two independent experiments.

mouse aortic rings = test: Aortic ring sprouting assay; assay type: cell-based; conditions: 5 μM, 10 days
Experimental: Additionally, the effect of compounds 1d, 1f, 1h, 1i, 1g, 2 and 2a on cell proliferation, migration, tube formation, micro-vessel branching, and perivascular recruitment using an aortic ring sprouting assay. When slices of mouse aorta are cultured in collagen gels there is typically a lag phase for the first 4 days followed by linear sprouting of endothelial cells. By day 6, branching is observed. All the test compounds were initially assayed at 7.5 μM and the number of branch-points counted. When there was a severe effect (no visible sprouting), or when there was no apparent effect, other doses were tested to establish a dose-dependence. All of the compounds assayed were able to attenuate aortic ring sprouting. There was a strong reduction in initial sprouting and some attenuation of branching. With the exception of 2a, in all cases where there was sprouting, the length of sprouts was shorter than in the controls.
Endothelial cell migration can also be studied […] using the aortic ring assay in which sprouting angiogenesis is monitored by the formation of vascular sprouts outside the wall of mouse aortic rings incubated in collagen matrix and stimulated by VEGF (Gerhardt, H., et al. EXS, 3-15 (2005), hereby incorporated by reference in its entirety). Briefly, mice were obtained from the Cincinnati Children's veterinary service and handled according to the institutional animal care and use protocol. […] Mice were 4 to 6 weeks old female C57BL16, and aortic ring explants were cultured at 37° C. in a humidified incubator under a 5% CO2 atmosphere.
Each inhibitor was serially diluted (between 0.25 mM and 7.5 mM) to stocks of 1000× the working concentrations in sterile 100% DMSO in order to achieve an equal final concentration of DMSO (0.1% v/v) in all culture conditions. For the experiments, the compounds were diluted in EBM containing 2.5% FBS, penicillin/streptomycin and 20 ng/ml VEGF165 (R&D Systems, Minneapolis, Minn.). Each compound was applied from the first day of culture over a 10-day period with medium change every two days. In all experiments, the vehicle (DMSO, 0.1%) was used as control. The sprouting density was derived from counting the number of branches per ring, and the extent of angiogenic sprouting was estimated by measuring the total surface area covered by the vessels as illustrated in FIG. 7.

HUVECs = test: HUVEC proliferation (MTT); assay type: cell-based, human; conditions: 5 μM, 24 hours
[1] = system: A673 (Ewings sarcoma) cells; test: Mouse xenograft model of Ewings sarcoma; assay type: in vivo, nude mice; conditions: intra-peritoneal 25 mg/kg/day or intra-tumor
Experimental: The affect of EYA inhibitors on a mouse xenograft model of Ewings sarcoma was tested. 5×10^6 A673 (Ewings sarcoma) cells in 0.1 ml sterile matrigel were injected subcutaneously into the dorsal flank region of nude mice. Approximately 5 days after injection, the tumors were about 100-300 mm^3. […] The dose for intra-peritoneal injections was 25 mg/kg/day. The tumor size was monitored every other day. Animals were sacrificed after 2 weeks, or when tumor volume approached 10% of animal weight.

Sequence of EYA3 (Q99504 127-573): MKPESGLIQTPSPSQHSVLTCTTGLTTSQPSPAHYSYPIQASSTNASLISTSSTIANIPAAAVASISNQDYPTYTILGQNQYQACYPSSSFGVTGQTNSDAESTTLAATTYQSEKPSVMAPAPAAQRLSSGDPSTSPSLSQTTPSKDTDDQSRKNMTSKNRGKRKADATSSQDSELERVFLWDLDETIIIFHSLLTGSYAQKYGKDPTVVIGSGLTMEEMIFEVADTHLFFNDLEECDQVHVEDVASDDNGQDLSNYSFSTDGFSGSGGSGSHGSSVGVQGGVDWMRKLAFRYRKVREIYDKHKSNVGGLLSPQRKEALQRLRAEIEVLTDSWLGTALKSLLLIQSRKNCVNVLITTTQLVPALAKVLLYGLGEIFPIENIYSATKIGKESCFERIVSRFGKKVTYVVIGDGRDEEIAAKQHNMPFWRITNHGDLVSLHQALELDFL
Sequence of Eya3(ED) (P97480 223-510): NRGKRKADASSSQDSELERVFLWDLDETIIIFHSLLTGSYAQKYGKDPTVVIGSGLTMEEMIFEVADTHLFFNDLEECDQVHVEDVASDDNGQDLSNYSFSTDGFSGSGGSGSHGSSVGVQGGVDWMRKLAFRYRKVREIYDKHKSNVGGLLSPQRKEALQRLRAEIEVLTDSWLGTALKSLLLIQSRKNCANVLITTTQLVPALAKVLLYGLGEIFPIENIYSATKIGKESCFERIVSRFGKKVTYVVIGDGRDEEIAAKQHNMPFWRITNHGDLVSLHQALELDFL

Row | IC50 (Eya3(ED)) [µM] | IC50 (EYA3; pNPP substrate, full-length EYA3) [µM] | inhibitory effect in presence of detergent (EYA3; 0.01% Triton X-100) | mode of inhibition (substrate titration) (EYA3; increasing substrate concentration) | SMILES | cell migration (MCF10A(EYA2) cells) | sprout length and microvascular density of aortic rings (mouse aortic rings) | HUVEC cell proliferation (HUVECs) | tumor growth [1]
1 | 19.2 | 17 |  |  | CCc1oc2ccccc2c1C(=O)c1ccc(O)cc1 [Compound 1a] | significantly inhibited cell migration | shorter sprouts and significantly lower microvascular density | no effect on cell proliferation | 
2 |  |  | retained | not a competitive inhibitor | CCc1oc2ccccc2c1C(=O)c1cc(Br)c(O)c(Br)c1 [Compound 1, Benzbromarone, reference compound] | significantly inhibited cell migration | shorter sprouts and significantly lower microvascular density | no effect on cell proliferation | able to reduce tumor growth
